According to US8496967B2, “Oral formulations” (ARIAD Pharmaceuticals, Inc., priority 2006, dated 2013):

Experiments:
[1] = study of the degradation of AP23573; type: physicochemical
[2] = tested on: human tumor cell lines, including prostate, endometrial, soft tissue and bone sarcoma, leukemia, lymphoma and glioblastoma cell lines; experiment: in vitro proliferation of human tumor cell lines; type: cell-based
[3] = tested on: human tumor cell lines, including prostate, endometrial, soft tissue and bone sarcoma, leukemia, lymphoma and glioblastoma cell lines; experiment: in vivo xenograft models of human tumor cell lines

Question: With CO[C@H]1C[C@@H]2CC[C@@H](C)[C@@](O)(O2)C(=O)C(=O)N2CCCC[C@H]2C(=O)O[C@H]([C@H](C)C[C@@H]2CC[C@@H](OP(C)(C)=O)[C@H](OC)C2)CC(=O)[C@H](C)/C=C(\C)[C@@H](O)[C@@H](OC)C(=O)[C@H](C)C[C@H](C)/C=C/C=C/C=C/1C [AP23573, 43-dimethylphosphinate ester of rapamycin] as the compound, how does the aqueous degradation ([1]; aqueous, forms ring opened seco-AP23573) read?
Answer: undergoes aqueous degradation via cleavage of a lactone bond

Question: What about the oxidative degradation pathway ([1]; oxidation) of the same compound?
Answer: oxidation of the compound's triene moiety

Question: And the “inhibition of proliferation of human tumor cell lines” value [2]?
Answer: potently inhibited proliferation

Question: And the “inhibition of proliferation of human tumor cell lines” value [3]?
Answer: potently inhibited proliferation
